In patent publication US20110009266A1, “Herbicidal Compositions Comprising Pyroxasulfone” (BASF SE, priority 2008, published 2011):
Read-outs that look alike come from different tables or passages of the source.

Experiments:
Assay type in all cases: in vivo
[1] = system: LOLMU (Lolium multiflorum, italian ryegrass); assay: greenhouse herbicidal activity on Lolium multiflorum; settings: Post-Emergence; for inhibition at 13 g/ha / inhibition at 50 g/ha: Lolium multiflorum; for inhibition at 50 g/ha: 50 g ai/ha
From the text: (§1) For the post-emergence treatment, the test plants were first grown to a height of 3 to 20 cm, depending on the plant habit, and only then treated. Here, the herbicidal compositions were suspended or emulsified in water as distribution medium and sprayed using finely distributing nozzles.
(§2) The respective herbicides A and/or safener were formulated as 10% by weight strength suspension concentrate and introduced to the spray liquor with the amount of solvent system used for applying the active compound. Herbicide B and/or safener were used as commercially available formulations and introduced to the spray liquor with the amount of solvent system used for applying the active compound. In the examples, the solvent used was water.
(§3) Picolinafen was used as a commercial wettable granule formulation having an active ingredient content of 75% by weight.
(§4) 4-(3-trifluoromethylphenoxy)-2-(4-trifluoromethylphenyl)-pyrimidine was used as an aqueous suspension concentrate having an active ingredient concentration of 200 g/l.
(§5) The test period extended over 21 days. During this time, the plants were tended, and their response to the treatments with active compound was evaluated.
(§6) The evaluation for the damage caused by the chemical compositions was carried out using a scale from 0 to 100%, compared to the untreated control plants. Here, 0 means no damage and 100 means complete destruction of the plants.
(§7) The value E, which is to be expected if the activity of the individual compounds is just additive, was calculated using the method of S. R. Colby (1967) “Calculating synergistic and antagonistic responses of herbicide combinations”, Weeds 15, p. 22 ff.
(§8) where X=effect in percent using herbicide A at an application rate a; • Y=effect in percent using herbicide B at an application rate b; • E=expected effect (in %) of A+B at application rates a+b.
(§9) If the value observed in this manner is higher than the value E calculated according to Colby, a synergistic effect is present.

[2] = system: STEME (Stellaria media, chickweed); assay: greenhouse herbicidal activity on Stellaria media; settings: Post-Emergence; for inhibition at 50 g/ha: Stellaria media
From the text: as §1, §2, §3, §4, §5, §6, §7, §8, §9

[3] = system: GALAP (Galium aparine, cleaver); assay: greenhouse herbicidal activity on Galium aparine; settings: Post-Emergence, 20 DAT
From the text: as §1, §2, §4, §5, §6, §7, §8, §9

[4] = system: VERPE (Veronica persica, field speedwell); assay: greenhouse herbicidal activity on Veronica persica; settings: Post-Emergence, 20 DAT
From the text: as §1
as §2, with “water. […]” for “water.”
(§10) The test period extended over 21 days. During this time, the plants were tended, and their response to the treatments with active compound was evaluated. […]
(§11) The value E, which is to be expected if the activity of the individual compounds is just additive, was calculated using the method of S. R. Colby (1967) “Calculating synergistic and antagonistic responses of herbicide combinations”, Weeds 15, p. […]
as §9

[5] = system: ALOMY (Alopecurus myosuroides, blackgrass); assay: greenhouse herbicidal activity on Alopecurus myosuroides; settings: Post-Emergence, 20 DAT
From the text: as §1
as §2, with “water. […]” for “water.”
as §10, §11, §9

[6] = system: PHACA (Phalaris canariensis, canarygrass); assay: greenhouse herbicidal activity on Phalaris canariensis; settings: Post-Emergence; for inhibition at 50 g/ha / inhibition at 100 g/ha: Phalaris canariensis; for inhibition at 50 g/ha: 50 g ai/ha; for inhibition at 100 g/ha: 100 g ai/ha
From the text: as §1, §2, §3, §5, §6, §7, §8, §9

[7] = 192 h, 8 DAT, read-out: observed % activity 8 DAT
[8] = 480 h, 20 DAT, read-out: observed % activity 20 DAT

Question: How did the “observed activity in % destruction 20 days after treatment” value ([1]; 63 g ai/ha, 20 DAT) turn out when FC(F)(F)c1ccc(-c2nccc(Oc3cccc(C(F)(F)F)c3)n2)cc1 [Compound B, 4-(3-trifluoromethylphenoxy)-2-(4-trifluoromethylphenyl)-pyrimidine] was run?
Answer: The value was 50%.

Question: What about the “observed activity in % destruction 20 days after treatment” value ([1]; 125 g ai/ha, 20 DAT) of the same compound?
Answer: Its value is 70%.

Question: What about the “observed activity in % destruction 20 days after treatment” value ([2]; 16 g ai/ha, 20 DAT) of the same compound?
Answer: Its value is 95%.

Question: What about the “observed activity in % destruction 20 days after treatment” value ([2]; 31 g ai/ha, 20 DAT) of the same compound?
Answer: Its value is 95%.

Question: And the “observed activity in % destruction 20 days after treatment” value ([3]; 31 g ai/ha)?
Answer: The value was 85%.

Question: And the “observed activity in % destruction 20 days after treatment” value ([3]; 63 g ai/ha)?
Answer: The value was 85%.

Question: What about the “observed activity in % destruction 20 days after treatment” value ([4]; 31 g ai/ha) of the same compound?
Answer: Its value is 98%.

Question: What about the “observed activity in % destruction 20 days after treatment” value ([5]; 16 g ai/ha) of the same compound?
Answer: The value was 15%.

Question: Which results are given for O=C(Nc1ccc(F)cc1)c1cccc(Oc2cccc(C(F)(F)F)c2)n1 [picolinafen]?
Answer: observed % activity 8 DAT ([1]; 25 g ai/ha, 8 DAT): 0%; observed % activity 20 DAT ([1]; 25 g ai/ha, 20 DAT): 20%; observed % activity 8 DAT ([6]; 13 g ai/ha, 8 DAT): 10%; observed % activity 20 DAT ([6]; 13 g ai/ha, 20 DAT): 30%; observed % activity 8 DAT ([2]; 13 g ai/ha, 8 DAT): 60%; observed % activity 20 DAT ([2]; 13 g ai/ha, 20 DAT): 90%

Question: What does the source list for Cn1nc(C(F)(F)F)c(CS(=O)(=O)C2=NOC(C)(C)C2)c1OC(F)F [pyroxasulfone, 3-[5-(difluoromethoxy)-1-methyl-3-(trifluoromethyl)pyrazol-4-ylmethylsulfonyl]-4,5-dihydro-5,5-dimethyl-1,2-oxazole]?
Answer: inhibition at 13 g/ha ([1]; 192 h, 13 g ai/ha, 8 DAT, read-out: observed % activity 8 DAT): 40%; inhibition at 50 g/ha [1, 7]: 50%; inhibition at 13 g/ha ([1]; 480 h, 13 g ai/ha, 20 DAT, read-out: observed % activity 20 DAT): 50%; inhibition at 50 g/ha [1, 8]: 85%; observed activity in % destruction 20 days after treatment ([1]; 13 g ai/ha, 20 DAT (Table 2)): 50%; observed activity in % destruction 20 days after treatment ([1]; 25 g ai/ha, 20 DAT (Table 2)): 75%; inhibition at 50 g/ha [6, 7]: 55%; inhibition at 100 g/ha [6, 7]: 60%; inhibition at 50 g/ha [6, 8]: 90%; inhibition at 100 g/ha [6, 8]: 90%; observed activity in % destruction 20 days after treatment ([2]; 25 g ai/ha, 20 DAT): 80%; observed activity in % destruction 20 days after treatment ([2]; 50 g ai/ha, 20 DAT (Table 2)): 85%; inhibition at 50 g/ha ([2]; 192 h, 50 g ai/ha, 8 DAT, read-out: observed % activity 8 DAT): 70%; inhibition at 50 g/ha ([2]; 480 h, 50 g ai/ha, 20 DAT, read-out: observed % activity 20 DAT): 85%; observed activity in % destruction 20 days after treatment ([3]; 25 g ai/ha): 90%; observed activity in % destruction 20 days after treatment ([3]; 50 g ai/ha): 90%; observed activity in % destruction 20 days after treatment ([3]; 100 g ai/ha): 95%; observed activity in % destruction 20 days after treatment ([4]; 25 g ai/ha): 60%; observed activity in % destruction 20 days after treatment ([5]; 100 g ai/ha): 90%
